Reference: article PMC12067444, “Synthesis and Pharmacological Characterization of Novel Peripheral Cannabinoid-1 Receptor Blockers Based on a Tricyclic Scaffold” (Journal of Medicinal Chemistry, 2025)

Columns and labels:
mouse brain tissue = assay: Protein binding in mouse brain, equilibrium dialysis
Protocol: (§1) Protein binding of test compound in mouse brain using equilibrium dialysis […]
(§2) method. Solution A (0. 5 mM) was prepared by mixing 10 µL of a 10 mM stock solution […]
(§3) with 190 µL of DMSO. Subsequently, Solution B (0.02 mM) was prepared by adding […]
(§4) 8 µL of solution A to 192 µL of 0.05 M sodium phosphate buffer. The final concentration of DMSO in Solution B was 4%.
(§5) A 96-well plate was initially prepared by dispensing 380 µL aliquots of brain […]
(§6) tissue into wells designated for the brain while t h e buffer was added to the remaining […]
(§7) wells to serve as a control. Subsequently, 20 µL of Solution B (containing 0.02 mM of […]
(§8) test and reference compounds) was spiked into the pre-loaded brain samples in the […]
(§9) plate. This step yielded a final test concentration of 1 µM, containing 0.2% DMSO. A duplicate system was establi shed for the dialysis sampl es wherein brain tissu e was prepared against buffer. Initially, 100 µL aliquots of blank dialysis buffer were applied to the receiver side of the dialysis chambers. Subsequently, 100 µL aliquots of the brain […]
(§10) tissue spiked with te st and reference compounds were applied to the donor side of the […]
(§11) T0 brain samples for initial concentrations were prepared in duplicate. A 25µL […]
(§12) aliquot of the brain spiked with test and reference compounds was transferred into a 96- […]
(§13) well sample preparation plate. An equivalent volume of blank buffer was then added […]
(§14) to each well. Af ter the 5-hour incubation period, aliquots of 25 µL wer e taken f r om t h e […]
(§15) dialysis apparatus's donor and receiver sides and transferred into new sample […]
(§16) preparation plates. An equal volume of the opposite matrix (blank buffer to brain and […]
(§17) vice versa) was added to each well, resulting in a final volume of 50 µL in each well.
(§18) The samples (both T0 and f i v e h) were then quenched with 200 µL of acetonitrile […]
(§19) containing internal standard (IS) and vortexed at 600 rpm for 10 minutes. After […]
(§20) vortexing, the samples were centrifuged at 5594 × g for 15 minutes. Subsequently, 50 […]
(§21) µL of the supernatants were transferred to a new 96-well plate and mixed with 50 µL […]
(§22) of Milli- Q water. T he sample plates wer e cover ed and stor ed in a f r eezer ( -20 ℃) until […]
(§23) respectively. For data analysis, the following equations wer e used:
(§24) % Bound = 100 × ([Donor]5h -[ Receiver] 5h) / [Donor] 5h
(§25) % Recovery= 100 × ([Donor]5h +[Receiver] 5h) / [Initial] 0h
(§26) Undiluted Fu (%) = (1/D) / [(1/Fu2-1 ) + 1/ D ]
(§27) Whereas; D: Dilution factor = Dilution factor of brain: 4

[1] = as above; settings: mouse
Protocol: as §1, §2, §3, §4, §5, §6, §7, §8, §9, §10, §11, §12, §13, §14, §15, §16, §17, §18, §19, §20, §21, §22, §23, §24, §25, §26, §27

[2] = Stability in simulated intestinal fluid (SIF); format: in vitro ADME
C57BL/6J mice = assay: CB1R agonist (HU210)-induced hypomotility; format: in vivo, mouse; settings: 1 or 10 mg/kg PO; HU210 30 μg/kg IP; 4 h
Protocol: The activity profiles of the mice were evaluated using the Promethion High-Definition Behavioral Phenotyping System (Sable Instruments, Inc., Las Vegas, NV, USA). MetaScreen software version 2.2.18.0 was employed for data acquisition and instrument control, while ExpeData version 1.8.4 was used for processing raw data. An analysis script detailing all aspects of the data transformation was utilized. Mice with unrestricted access to food and water were subjected to a standard 12 h light/12 h dark cycle, comprising a 16-h acclimation period followed by 24 h of sampling. Ambulatory activity and position were concurrently quantified by the number of disruptions of the infrared beams in three dimensions (XYZ) with a beam spacing of 0.25 cm.
The objective of this experiment was to evaluate the capability of BNS808 and rimonabant (utilized as a positive control) in inhibiting hypomotility induced by a CB1R agonist (HU210). Male wild-type C57BL/6J mice were administered a single dose of either the vehicle, rimonabant (10 mg/kg, PO), or BNS808 (1 or 10 mg/kg, PO). Thirty minutes following this administration, the mice received a single dose of HU210 (30 μg/kg, IP). The locomotor activity was quantified by assessing the disruptions of infrared beams in two dimensions for 4 h.

CYP1A2 = biological target: T1, CYP1A2 (Homo sapiens, UniProt P05177); assay: CYP inhibition in human liver microsomes; format: in vitro ADME; settings: probe phenacetin, phenacetin substrate
T1 construct: from tissue; host or cells: human liver microsomes
T1 sequence (P05177 1-516): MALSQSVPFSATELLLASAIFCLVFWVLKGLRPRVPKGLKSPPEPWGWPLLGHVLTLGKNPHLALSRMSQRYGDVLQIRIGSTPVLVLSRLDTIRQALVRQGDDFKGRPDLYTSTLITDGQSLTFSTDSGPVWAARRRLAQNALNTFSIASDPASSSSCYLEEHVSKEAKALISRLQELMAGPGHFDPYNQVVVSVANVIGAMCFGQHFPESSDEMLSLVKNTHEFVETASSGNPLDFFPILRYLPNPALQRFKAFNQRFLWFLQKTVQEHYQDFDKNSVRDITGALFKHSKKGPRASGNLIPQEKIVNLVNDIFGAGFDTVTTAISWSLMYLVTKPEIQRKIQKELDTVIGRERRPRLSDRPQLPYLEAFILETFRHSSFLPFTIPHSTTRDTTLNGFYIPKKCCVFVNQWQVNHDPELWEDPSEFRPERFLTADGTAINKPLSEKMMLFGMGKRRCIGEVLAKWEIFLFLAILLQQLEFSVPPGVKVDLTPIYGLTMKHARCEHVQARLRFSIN
Protocol: (§28) Human liver microsomes were incubated with the test compounds at 0.2 mg/mL of microsomal protein. The incubation was conducted at 37 °C in the presence of a NADPH (β-Nicotinamide adenine dinucleotide phosphate reduced form) regenerating system at a concentration of approximately 10 mM. To assess CYP inhibition, positive control substrates were utilized, including Phenacetin (1A2 substrate), Diclofenac (2C9 substrate), S-mephenytoin (2C19 substrate), Dextromethorphan (2D6 substrate), and Midazolam (3A4 substrate). The mixture was centrifuged after a 10 min incubation period to precipitate the protein. Subsequently, the samples underwent LC-MS/MS analysis, and the IC50 values were calculated to ascertain the inhibitory potency of the test compounds on specific CYP enzymes.

CYP2D6 = biological target: T2, CYP2D6 (Homo sapiens, UniProt P10635); assay: CYP inhibition in human liver microsomes; format: in vitro ADME; settings: probe dextromethorphan, dextromethorphan substrate
T2 construct: from tissue; host or cells: human liver microsomes
T2 sequence (P10635 whole entry): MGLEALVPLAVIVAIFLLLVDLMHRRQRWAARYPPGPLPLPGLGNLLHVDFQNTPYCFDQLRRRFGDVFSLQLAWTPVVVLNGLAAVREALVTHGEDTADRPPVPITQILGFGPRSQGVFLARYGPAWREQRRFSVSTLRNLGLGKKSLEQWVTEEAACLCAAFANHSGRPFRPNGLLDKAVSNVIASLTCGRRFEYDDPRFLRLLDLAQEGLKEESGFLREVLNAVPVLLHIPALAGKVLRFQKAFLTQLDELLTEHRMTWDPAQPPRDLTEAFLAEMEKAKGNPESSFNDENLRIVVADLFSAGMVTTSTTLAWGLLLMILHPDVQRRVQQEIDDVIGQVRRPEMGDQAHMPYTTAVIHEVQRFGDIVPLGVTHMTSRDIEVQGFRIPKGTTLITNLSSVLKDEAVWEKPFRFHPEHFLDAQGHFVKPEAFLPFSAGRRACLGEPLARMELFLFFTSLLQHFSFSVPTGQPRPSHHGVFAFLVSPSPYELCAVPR
Protocol: as §28

Structure (SMILES): O=S(=O)(NC1CCCOc2c1nn(-c1ccccc1Cl)c2-c1ccc(Cl)cc1)c1ccc(Cl)cc1 (stereo not drawn) [BNS808, 4-chloro-N-[2-(2-chlorophenyl)-3-(4-chlorophenyl)-5,6,7,8-tetrahydrooxepino[3,2-c]pyrazol-8-yl]benzenesulfonamide]
- protein binding in mouse brain (category) (mouse brain tissue; equilibrium dialysis, 1 µM, 5 h): extremely high protein binding and high
- Fraction of bound (%) (mouse brain tissue; mouse brain, diluted homogenate, 5 h): 100%
- Undiluted Bound (%) (mouse brain tissue; mouse brain, dilution factor 4): 100.0%
- recovery at 5 h, 1 µM [1]: 81.8%
- amount in SIF with pancreatin ([2]; 0 h): 2.972 mg
- amount in SIF, no pancreatin ([2]; 0 h): 3.257 mg
- Initial amount (%) in SIF with pancreatin ([2]; 1 h): 102%
- Initial amount (%) in SIF, no pancreatin ([2]; 1 h): 101%
- amount in SIF with pancreatin ([2]; 1 h): 3.023 mg
- amount in SIF, no pancreatin ([2]; 1 h): 3.277 mg
- Initial amount (%) in SIF with pancreatin ([2]; 3 h): 101%
- Initial amount (%) in SIF, no pancreatin ([2]; 3 h): 100%
- amount in SIF with pancreatin ([2]; 3 h): 3.0009 mg
- amount in SIF, no pancreatin ([2]; 3 h): 3.266 mg
- Stability in SIF ([2]; with and without pancreatin): Stable
- antagonism of HU-210-induced hypoactivity (C57BL/6J mice): unable to antagonize the hypoactivity mediated by HU-210
- IC50 at 10 min (CYP1A2): > 50 µM
- IC50 at 10 min (CYP2D6): > 50 µM
